# Results: paper PMC12362431, “Kinetic Dissection of the Reaction of Human GDP-L-Fucose Synthase” (ACS Catalysis, 2025)
# Where two headings read alike, the source gives them in different places.
# Assays:
# GFS complex with NADPH4 = biological target: T1, GFS complex with NADPH4 (Homo sapiens, UniProt Q13630); assay: Stopped-flow transient kinetic analysis of binding of GDP-L-fucose (fluorescence quenching)
# T1 construct: made in house; host or cells: E. coli Rosetta 2(DE3)
# [1] = biological target: enzyme/NADPH4 (GFS/NADPH4 complex) (Homo sapiens, UniProt Q13630); assay: Fluorescence titration, equilibrium binding (quenching of intrinsic protein fluorescence)
# enzyme/NADPH4 (GFS/NADPH4 complex), sequence (Q13630 8-321, one chain of several): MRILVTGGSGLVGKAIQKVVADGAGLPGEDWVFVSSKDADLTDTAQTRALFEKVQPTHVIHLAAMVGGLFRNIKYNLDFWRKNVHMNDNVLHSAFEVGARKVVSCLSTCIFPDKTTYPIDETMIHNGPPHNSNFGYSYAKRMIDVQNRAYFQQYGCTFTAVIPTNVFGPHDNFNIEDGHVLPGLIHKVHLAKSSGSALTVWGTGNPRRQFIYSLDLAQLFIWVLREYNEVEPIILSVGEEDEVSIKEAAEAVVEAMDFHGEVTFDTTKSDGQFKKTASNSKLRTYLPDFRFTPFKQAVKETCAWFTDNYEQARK
# [2] = biological target: enzyme/NADP+ (GFS/NADP+ complex) (Homo sapiens, UniProt Q13630); assay: as above
# enzyme/NADP+ (GFS/NADP+ complex), sequence (Q13630 8-321, one chain of several): as above
# wild-type GFS [3] = biological target: T2, wild-type GFS (Homo sapiens, UniProt Q13630); assay: Global simulation fitting of mechanism b to transient stopped-flow curves; type: biochemical; details: release from the ternary product complex enzyme/NADP+/GDP-L-fucose
# T2 construct: made in house; host or cells: E. coli Rosetta 2(DE3)
# T2 sequence (Q13630 8-321): as the sequence (Q13630 8-321, one chain of several) above
# Experimental: Spectrofluorometric analysis of ligand binding
# Fluorescence titrations of wild-type GFS in the binding of coenzyme, substrate and/or product were performed using a fluorescence spectrophotometer F-4500 (Hitachi, Ltd., Tokyo, Japan).
# Emission spectra were recorded in the range 300–500 nm at 1200 nm/min with the excitation […]
# 25 mM NaCl, pH 8.0) without agitation (25 °C). […] The resulting fluorescence signals were plotted versus ligands concentrations and the data were fitted to a hyperbol ic equation (Eq. S6) to obtain the Kd value (Figure S8, S9; Table S3): […]
# where F is the fluorescence emission, [L] is concentration of ligand, F1 is the initial and F2 is the final fluorescence signal, [E] is the enzyme subunit concentration. […]
# the fluorescence measurements. […]
# Standard errors for the fitted rate constants were estimated as standard deviations based on the variability observed during global fitting . The goodness of fit to the model was assessed by confidence contour analysis, in which all parameters, except for k-1, were well constrained by the data. […]
# GFS [4] = biological target: GFS; set-up: method as in not given; details: earlier studies of GFS, source organism not given; ref not given; cited from earlier work
# [5] = biological target: apo GFS (ligand-free wild-type GFS) (Homo sapiens, UniProt Q13630); assay: Fluorescence titration, equilibrium binding (quenching of intrinsic protein fluorescence); details: for Kd: apo GFS 0.40 μM, 10 mM Tris, 25 mM NaCl, pH 8.0, 25 °C
# apo GFS (ligand-free wild-type GFS), sequence (Q13630 8-321): as the sequence (Q13630 8-321, one chain of several) above
# wild-type GFS [6] = biological target: T2, wild-type GFS; assay: Steady-state initial-rate kinetics and primary KIE (NADPH consumption, absorbance at 340 nm); type: biochemical
# GFS variant C116S = biological target: T3, GFS variant C116S (Homo sapiens, UniProt Q13630, C116S); assay: as above; type: biochemical; details: deuterated vs unlabeled substrate/coenzyme, pH 8.0, 37 °C, in 1/s
# T3 construct: made in house; host or cells: E. coli Rosetta 2(DE3)
# T3 sequence (Q13630 whole entry C116S): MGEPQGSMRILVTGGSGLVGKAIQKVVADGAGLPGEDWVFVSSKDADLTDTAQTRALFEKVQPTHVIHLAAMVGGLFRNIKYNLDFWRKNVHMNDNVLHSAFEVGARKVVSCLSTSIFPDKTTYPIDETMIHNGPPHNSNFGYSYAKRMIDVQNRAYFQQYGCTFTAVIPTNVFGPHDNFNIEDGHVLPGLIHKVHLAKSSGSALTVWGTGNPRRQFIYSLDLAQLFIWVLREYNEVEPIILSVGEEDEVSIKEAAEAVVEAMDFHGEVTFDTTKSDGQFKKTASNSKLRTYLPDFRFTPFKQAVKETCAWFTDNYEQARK
# GFS variant H186K = biological target: T4, GFS variant H186K (Homo sapiens, UniProt Q13630, H186K); assay: as above; type: biochemical
# T4 construct: made in house; host or cells: E. coli Rosetta 2(DE3)
# T4 sequence (Q13630 whole entry H186K): as the sequence (Q13630 whole entry C116S) above, with S116C, H186K counted along it
# GFS variant Y143F = biological target: T5, GFS variant Y143F (Homo sapiens, UniProt Q13630, Y143F); assay: as above; type: biochemical
# T5 construct: made in house; host or cells: E. coli Rosetta 2(DE3)
# T5 sequence (Q13630 whole entry Y143F): as the sequence (Q13630 whole entry C116S) above, with S116C, Y143F counted along it
# GFS [7] = test system: GFS; set-up: method as in not given; details: earlier studies of GFS, source organism not given; ref not given; cited from earlier work; remark: listed apart in the source
# [8] = nonlinear fit of kobs with eq S15
# [9] = deuterated vs unlabeled substrate/coenzyme, pH 8.0, 37 °C, in 1/s
# [10] = varied substrate 3, pH 8.0, 37 °C
# T1 sequence (Q13630 8-321, one chain of several): as the sequence (Q13630 8-321, one chain of several) above
smiles,measurement,setting,value
"CC1OC(OP(=O)(O)OP(=O)(O)OCC2OC(n3cnc4c(=O)[nH]c(N)nc43)C(O)C2O)C(O)C(O)C1O [1a, GDP-L-fucose]",koff,"GFS complex with NADPH4; global simulation fit, lower bound only, read-out: koff (association step)",≥ 11 s⁻¹
same,kon,"GFS complex with NADPH4; global simulation fit, lower bound only, read-out: kon (association step)",≥ 2e+06 M⁻¹ s⁻¹
same,k′1,"GFS complex with NADPH4; global simulation fit, range 0.3–0.8 s^–1",0.6 s^–1
same,k′–1,"GFS complex with NADPH4; global simulation fit, range 0.5–1.4 s^–1",0.9 s^–1
same,Kd,"GFS complex with NADPH4; global simulation fit, range 3–12 μM, read-out: Kd (two-step binding)",7 µM
same,k′1 (forward conformational change),GFS complex with NADPH4; [8],0.6 ± 0.1 s⁻¹
same,"k′–1 (reverse conformational change, GDP-L-fucose release rate)",GFS complex with NADPH4; [8],0.5 ± 0.1 s^–1
same,Kd,"GFS complex with NADPH4; nonlinear fit of kobs with eq S15, GFS 2.0 μM, NADPH4 15.0 μM, pH 8.0, 37 °C, read-out: Kd (encounter complex, two-step binding)",4 ± 2 µM
same,Kd,[1],1.1 ± 0.2 µM
same,tighter binding to enzyme-NADPH4 than to enzyme-NADP+,[1]; ratio of Kd values,~12 fold
same,Kd,[2],13 ± 4 µM
same,rate constant for the release,wild-type GFS [3],12 s^–1
same,Ki,GFS [4],55.3 µM
"Nc1nc2c(ncn2[C@@H]2O[C@H](COP(=O)(O)OP(=O)(O)O)[C@@H](O)[C@H]2O)c(=O)[nH]1 [GDP, guanosine 5′-diphosphate]",Ki,GFS [4],60.5 µM
NC(=O)c1ccc[n+]([C@@H]2O[C@H](COP(=O)([O-])OP(=O)(O)OC[C@H]3O[C@@H](n4cnc5c(N)ncnc54)[C@H](OP(=O)(O)O)[C@@H]3O)[C@@H](O)[C@H]2O)c1 [NADP+],Kd,[5],8 ± 2 µM
same,rate constant for the release,wild-type GFS [3],26 s^–1
"NC(=O)C1=CN([C@@H]2O[C@H](COP(=O)(O)OP(=O)(O)OC[C@H]3O[C@@H](n4cnc5c(N)ncnc54)[C@H](OP(=O)(O)O)[C@@H]3O)[C@@H](O)[C@H]2O)CCC1 [NADPH4, 1″,4″,5″,6″-tetrahydro-NADPH]",Kd,[5],0.3 ± 0.1 µM
same,tighter binding to the free GFS than NADP+,[5]; ratio of Kd values,27 fold
NC(=O)C1=CN([C@@H]2O[C@H](COP(=O)(O)OP(=O)(O)OC[C@H]3O[C@@H](n4cnc5c(N)ncnc54)[C@H](OP(=O)(O)O)[C@@H]3O)[C@@H](O)[C@H]2O)C=CC1 [NADPH],Km,"wild-type GFS [6]; varied NADPH, substrate 3 100 μM, pH 8.0, 37 °C",0.75 ± 0.03 µM
[2H][C@@H]1C=CN([C@@H]2O[C@H](COP(=O)(O)OP(=O)(O)OC[C@H]3O[C@@H](n4cnc5c(N)ncnc54)[C@H](OP(=O)(O)O)[C@@H]3O)[C@@H](O)[C@H]2O)C=C1C(N)=O [[4S-^2H]-NADPH],kinetic isotope effect on kcat (Dkcat),GFS variant C116S,1.0 ± 0.2
same,kinetic isotope effect on kcat (Dkcat),GFS variant H186K; [9],1.12 ± 0.08
same,"kinetic isotope effect on kcat/Km, Dkcat/Km^3",GFS variant H186K; [10],1.1 ± 0.5
same,kinetic isotope effect on kcat (Dkcat),wild-type GFS [6]; [9],1.03 ± 0.05
same,"kinetic isotope effect on kcat/Km, Dkcat/Km^NADPH","wild-type GFS [6]; varied coenzyme, substrate 3 100 μM, pH 8.0, 37 °C",1.6 ± 0.2
same,"kinetic isotope effect on kcat/Km, Dkcat/Km^3",wild-type GFS [6]; [10],1.4 ± 0.4
same,kinetic isotope effect on kcat (Dkcat),GFS variant Y143F; [9],3.9 ± 0.3
same,"kinetic isotope effect on kcat/Km, Dkcat/Km^3",GFS variant Y143F; [10],4 ± 1
same,KIE on the enzymatic rate,GFS [7],1.4
